Experiment [1] has as its system T cells. Description: CD62L expression on T cells cultured with MK-2206. Format: cell-based, human. On the procedure:
Peripheral blood mononuclear cells (PBMC) are a heterogeneous cellular population containing T cells. PBMC were harvested from normal donors and labeled with a fluorescent dye (CellTrace® Violet, Molecular Probes), whose intensity is progressively diluted by a factor of two with each cell division. The labeled PBMCs were used as a source of cells for T cell expansion. […] The impact of MK-2206 on cell division was assayed by evaluating CellTrace Violet dilution with flow cytometry after the addition of 0.025 μM, 0.074 μM, 0.222 μM, 0.67 μM, or 2.0 μM, MK-2206 to the T cultures at day 0. […] A pairwise t test was performed on all day seven cultures; (each concentration of MK-2206 was compared to 0 μM MK-2206: the cultures were not statistically different at the p≤0.05 level). The purpose of this experiment was to determine the effect of Akt inhibitors on T cell markers for T cell potency. The impact of MK-2206 (Selleckchem) on T cell potency was assessed by measuring CD62L expression in the T cell cultures manufactured in Example 1. Mouse models have shown that CD62L expression identifies potent T cells; T cells with greater anti-tumor efficacy after adoptive transfer. […] FIG. 2. A pairwise T test was performed on all day seven cultures (each concentration of MK-2206 was compared to 0 μM MK-2206: *p<0.05, **p<0.01).

Experiment [2] concerns anti-BCMA CAR T cells. Description: Cell surface expression of anti-BCMA CAR by flow cytometry. Format: cell-based, human. The note with it: end of culture, four normal donors. Here is the method:
(§1) 1×10^8 transducing units of lentivirus encoding anti-BCMA CARs were added one day after culture initiation and at the end of culture, the anti-BCMA CAR T cells were interrogated for genomic integration and cell surface expression of the anti-BCMA CAR.
Expression of the anti-BCMA CAR on the surface of T cells was assessed by flow cytometry at the end of culture. Anti-BCMA CAR T cells were specifically identified using recombinant human BCMA-IgG Fc conjugated to PE.
On the technique in general: A flow cytometer gives signals particle by particle.

For experiment [3], the system named is T cells. Kind of experiment: T cell proliferation by CellTrace Violet dilution (flow cytometry). Format: cell-based, human. Here is the method: Peripheral blood mononuclear cells (PBMC) are a heterogeneous cellular population containing T cells. PBMC were harvested from normal donors and labeled with a fluorescent dye (CellTrace® Violet, Molecular Probes), whose intensity is progressively diluted by a factor of two with each cell division. The labeled PBMCs were used as a source of cells for T cell expansion. […] The impact of MK-2206 on cell division was assayed by evaluating CellTrace Violet dilution with flow cytometry after the addition of 0.025 μM, 0.074 μM, 0.222 μM, 0.67 μM, or 2.0 μM, MK-2206 to the T cultures at day 0. […] A pairwise t test was performed on all day seven cultures; (each concentration of MK-2206 was compared to 0 μM MK-2206: the cultures were not statistically different at the p≤0.05 level).

Experiment [4] concerns anti-BCMA CAR T cells. Description: Integrated copies of anti-BCMA CAR (vector copy number) by quantitative PCR. The class given is cell-based, human. As to conditions: end of culture, four normal donors, 1×10^8 transducing units lentivirus. Here is the method:
as §1
Integrated copies of the anti-BCMA CAR were assessed by quantitative PCR at the end of culture using primers that detect the vector or the genomic control RNAseP.

Experiment [5] has as its system anti-BCMA CAR T cells. Kind of experiment: CD62L expression on anti-BCMA CAR T cells by flow cytometry at end of culture. The class given is cell-based, human. Here is the method: CAR T cells were cultured with either MK-2206 or triciribine phosphate-TCN (AKT inhibitors) or ZSTK474 (PI3K inhibitor). CAR T cells specific for B cell maturation antigen (BCMA) were used in these set of experiments. CAR T cell cultures were performed using a system directly scalable to large clinical manufacturing processes. […] 2×10^8 transducing units of lentivirus encoding anti-BCMA CARs were added one day after culture initiation. […] At the end of culture, the anti-BCMA CAR T cells were interrogated for phenotype.
Expression of CD62L on anti-BCMA CAR T cells was assessed by flow cytometry at the end of culture. Anti-BCMA CAR T cells were specifically identified using recombinant human BCMA-IgG Fc conjugated to PE. CD62L expression was determined with a co-stain using an antibody specific to CD62L. […] (FIG. 3).
Anti-BCMA CAR T cells cultures were prepared using a system directly scalable to large clinical manufacturing processes. […] 2×10^8 transducing units of lentivirus encoding anti-BCMA CARs were added one day after culture initiation. […] At the end of culture, the anti-BCMA CAR T cells were interrogated for phenotype.
Expression of CD62L on anti-BCMA CAR T cells was assessed by flow cytometry at the end of culture. Anti-BCMA CAR T cells were specifically identified using recombinant human BCMA-IgG Fc conjugated to PE. CD62L expression was determined with a co-stain using an antibody specific to CD62L. […] (FIG. 7).

The test system of experiment [6] is anti-BCMA CAR T cells. Kind of experiment: CD8 expression by flow cytometry. Format: cell-based, human. The note with it: seven normal donors, IL-2 and ZSTK474. Here is the method: CD8 expression was determined using a fluorescently-labeled anti-CD8 antibody and flow cytometry. […] FIG. 10.
Experiment [7] has as its system anti-BCMA CAR T cells. Kind of experiment: Cell surface marker expression by multiparameter mass cytometry (CyTOF). Format: cell-based.
Protocol: Expression analysis of 29 additional cell surface markers on anti-BCMA CAR T cells cultured with IL-2 and ZSTK474 was performed using multiparameter mass cytometry (CyTOF) and compared with CAR T cells cultured in IL-2 alone.
Experiment [8] concerns anti-BCMA CAR T cells. Kind of experiment: CD127, CD197, CD38 co-expression by fluorescence-based flow cytometry. Format: cell-based. As to conditions: seven donors, ten days of culture. The text has this: The mass cytometry data in Example 8 identified a set of cell surface markers that further characterizes the phenotype of CART cells cultured in the presence of ZSTK474. […] CAR T cells from seven donors cultured in the presence or absence of ZSTK474 were stained with fluorescently labeled antibodies to CD127, CD197, and CD38. […] FIG. 9.

The test system of experiment [9] is anti-BCMA CAR T cells. Description: Tonic (antigen-independent) IFN-γ release by ELISA. Format: cell-based. The note with it: 14 donors; after ten days of culture; IFN-γ levels below 200 pg/mL represent no tonic activity. Here is the method: Tonic activity of CAR T cells in the absence of antigen has been associated with reduced biological activity. […] Anti-BCMA CAR T cells cultures were prepared using a system directly scalable to large clinical manufacturing processes. […] 2×10^8 transducing units of lentivirus encoding anti-BCMA CARs were added one day after culture initiation. […] At the end of manufacture, an equivalent number of anti-BCMA CAR T cells were re-cultured for 24 hours in media alone. The amount of IFN-γ released in 24 hours was quantified by ELISA. In this assay IFN-γ levels below 200 pg/mL represent no tonic activity.
In general terms: ELISA stands for enzyme-linked immunosorbent assay.

Setting [10] is: Example 3: ten days of culture with IL-2 and optimized dose of inhibitor, three normal donors.
The mark [11] stands for this setting: Example 7: ten days of culture with IL-2 and optimized dose of inhibitor, four normal donors.

“Also recorded” adds a separate entry of the source.

Take `NC1(c2ccc(-c3nc4ccn5c(=O)[nH]nc5c4cc3-c3ccccc3)cc2)CCC1` [MK-2206]: the “CD62L expression on T cells vs no treatment control” value in the experiment with T cells [1] (seven days of culture, all concentrations of MK-2206 tested, in presence of IL-2) is on record as “significantly increases CD62L expression; also recorded: significant higher levels of CD62L expression”; in the experiment on T cells [1] (three days of culture with MK-2206) it was “not substantially different”. Further, the “anti-BCMA CAR expression on the surface of T cells vs IL-2 alone” value in the experiment on anti-BCMA CAR T cells [2] is “significantly higher CAR expression”. Besides, the “T cell division / proliferation vs vehicle or non-treated controls” value in the experiment on T cells [3] (seven days of culture, 0.025-2.0 μM MK-2206, IL-2, pairwise t test p≤0.05) is on record as “no statistically significant differences in T cell division; also recorded: not substantially different”. The “T cell division / proliferation vs no treatment control” value with T cells [3] (three days of culture, 0.025-2.0 μM MK-2206, IL-2, CD3 and CD28 antibodies) is “did not substantially decrease T cell division; also recorded: only slightly decreased”. Also, the “integrated copies of the anti-BCMA CAR vs IL-2 only” value with anti-BCMA CAR T cells [4] is “significantly more integrated copies”. Moreover, the “CD62L expression on anti-BCMA CAR T cells vs IL-2 alone” value (“CD62L expression … vs IL-2 alone” for short) with anti-BCMA CAR T cells [5] (setting [10]) and in the experiment with anti-BCMA CAR T cells [5] (setting [11]) was “significantly higher CD62L expression” in each case.
Turning to `Nc1nc(N)c2nc(-c3cccc(O)c3)cnc2n1` [TG100713], in the experiment with anti-BCMA CAR T cells [5] (setting [11]), the “CD62L expression … vs IL-2 alone” value was “significantly higher CD62L expression”.
With `FC(F)c1nc2ccccc2n1-c1nc(N2CCOCC2)nc(N2CCOCC2)n1` [ZSTK474], in the experiment on anti-BCMA CAR T cells [6], the “CD8 expression vs IL-2 alone” value was “significantly higher CD8 expression; also recorded: increased percentage of CD8 expressing anti-BCMA CAR T cells”. For the same compound, in the experiment with anti-BCMA CAR T cells [7] (CD62L positive anti-BCMA T cells, ten days of culture), the “percentage of cells co-expressing CD127, CD197 and CD38 vs IL-2 alone (Venn diagrams)” value was “increase in the percentage of cells co-expressing CD127, CD197 and CD38”. The “anti-BCMA CAR T cells co-expressing CD127, CD197 and CD38” value in the experiment with anti-BCMA CAR T cells [7] (CyTOF, CD62L positive cells, ten days of culture) worked out at 24.5%. Besides, the “expression of CD127, CD197 and CD38 vs IL-2 alone” value in the experiment on anti-BCMA CAR T cells [7] (CyTOF, anti-BCMA CAR T cells cultured with IL-2 and ZSTK474) was “increased expression”. For the same compound, the “anti-BCMA CAR T cells co-expressing CD127, CD197 and CD38 vs IL-2 alone” value in the experiment on anti-BCMA CAR T cells [8] was “significant increase; also recorded: increase in the percentage of cells co-expressing CD127, CD197 and CD38”. In the experiment with anti-BCMA CAR T cells [9], the “IFN-γ released in 24 hours in media alone (tonic activity)” value is reported as “consistent with lacking tonic activity; also recorded: did not significantly increase”. Also, the results for the “CD62L expression … vs IL-2 alone” value with anti-BCMA CAR T cells [5] (setting [10]) and in the experiment with anti-BCMA CAR T cells [5] (setting [11]) were “increased CD62L expression; also recorded: significantly higher CD62L expression” and “significantly higher CD62L expression”, respectively.

The record behind these values is patent US11479755B2, “T cell compositions” (2seventy bio, Inc., priority 2015, dated 2022).
